Patent US20230389542A1, “USE OF [(1,5-DIPHENYL-1H-PYRAZOL-3-YL)OXY] ACETIC ACID DERIVATIVES AND THEIR SALTS AND COMPOSITIONS CONTAINING THEM, FOR REDUCING PHYTOTOXIC EFFECTS OF AGROCHEMICALS, IN PARTICULAR OF HERBICIDES, IN USEFUL PLANTS AND CROP PLANTS” (BAYER AKTIENGESELLSCHAFT, priority 2020, published 2023)

Columns and labels:
[1] = test system: summer wheat (TRZAS; cv. Triso); assay: Relative action (efficacy code): reduction of damage by mesosulfuron-methyl on summer wheat; type: in vivo; set-up: key: 0: no reduction in damage (appearance corresponding to the herbicide control); 1: slight reduction in damage; 2: distinct reduction in damage; 3: significant reduction in damage; 4: complete reduction in damage (appearance corresponding to the untreated control); conditions: visual, 9-13 days after application
Experimental: 2.3 Relative Action of Selected Compounds of the Invention Using the Example of Reduction of Damage by Mesosulfuron-Methyl on Summer Wheat (TRZAS) The seeds of the crop plants to be treated are laid out in sandy loam in plastic pots (diameter μ4 cm), covered with soil and grown in a greenhouse under good conditions for germination and growth. The trial plants were treated at the early leaf stage (BBCH10-BBCH12). In the course of this, the inventive compounds of the general formula (I) formulated in the form of wettable powders (WP) were sprayed onto the above-ground parts of the plants as an aqueous suspension with a water application rate corresponding to 800 l/ha with addition of wetting agent (e.g. 0.2% Genapol-LRO or 0.2% Mero) in the specified dose. This was followed by the application of the herbicide. For this purpose, mesosulfuron-methyl, formulated in the form of water-dispersible granules (WG), was sprayed onto the above-ground parts of the plants in the form of an aqueous dispersion with a water application rate corresponding to 800 l/ha with addition of wetting agent (e.g. 0.2% Genapol-LRO or 1 l/ha Biopower) in a dose of 40-60 g/ha. The dose of the herbicide was chosen here such that it causes visually apparent damage (min. 30%, max. 75%) compared to untreated crop plants at the evaluation time on a control group of crop plants without safener treatment that were included in the same trial. After application, the plants were cultivated under good growth conditions in a greenhouse. 9-13 days after application, the efficacy of the test compounds was assessed visually. For this purpose, the appearance of the plants treated with the test compound and herbicide was compared to the corresponding herbicide controls (without safener; with clearly visible damage) and the untreated controls (without damage). The damage-reducing effect of the test compounds was expressed here in graded efficacy codes according to the following scheme: • 0: no reduction in damage (appearance corresponding to the herbicide control) • 1: slight reduction in damage • 2: distinct reduction in damage • 3: significant reduction in damage • 4: complete reduction in damage (appearance corresponding to the untreated control) The trials show clear efficacy of the inventive compounds selected by way of example with regard to the reduction in damage to the summer wheat crop plant (TRZAS; cv. Triso) caused by the herbicide mesosulfuron-methyl: […]

[2] = test system: summer barley (HORVS; cv. Montoya); assay: Relative action (efficacy code): reduction of damage by mesosulfuron-methyl on summer barley; type: in vivo; set-up: key: 0: no reduction in damage (appearance corresponding to the herbicide control); 1: slight reduction in damage; 2: distinct reduction in damage; 3: significant reduction in damage; 4: complete reduction in damage (appearance corresponding to the untreated control); conditions: visual, 9-13 days after application, 2 repeats coded separately
Experimental: 2.4 Relative Action of Selected Compounds of the Invention Using the Example of Reduction of Damage by Mesosulfuron-Methyl on Summer Barley (HORVS) The seeds of the crop plants to be treated are laid out in sandy loam in plastic pots (diameter˜4 cm), covered with soil and grown in a greenhouse under good conditions for germination and growth. The trial plants were treated at the early leaf stage (BBCH10-BBCH12). In the course of this, the inventive compounds of the general formula (I) formulated in the form of wettable powders (WP) were sprayed onto the above-ground parts of the plants as an aqueous suspension with a water application rate corresponding to 800 l/ha with addition of wetting agent (e.g. 0.2% Genapol-LRO or 0.2% Mero) in the specified dose. This was followed by the application of the herbicide. For this purpose, mesosulfuron-methyl, formulated in the form of water-dispersible granules (WG), was sprayed onto the above-ground parts of the plants in the form of an aqueous dispersion with a water application rate corresponding to 800 l/ha with addition of wetting agent (e.g. 0.2% Genapol-LRO or 1 l/ha Biopower) in a dose of 40-60 g/ha. The dose of the herbicide was chosen here such that it causes visually apparent damage (min. 30%, max. 75%) compared to untreated crop plants at the evaluation time on a control group of crop plants without safener treatment that were included in the same trial. After application, the plants were cultivated under good growth conditions in a greenhouse. 9-13 days after application, the efficacy of the test compounds was assessed visually. For this purpose, the appearance of the plants treated with the test compound and herbicide was compared to the corresponding herbicide controls (without safener; with clearly visible damage) and the untreated controls (without damage). The damage-reducing effect of the test compounds was expressed here separately for 2 repeats in graded efficacy codes according to the following scheme: • 0: no reduction in damage (appearance corresponding to the herbicide control) • 1: slight reduction in damage • 2: distinct reduction in damage • 3: significant reduction in damage • 4: complete reduction in damage (appearance corresponding to the untreated control) The trials show clear efficacy of the inventive compounds selected by way of example with regard to the reduction in damage to the summer barley crop plant (HORVS; cv. Montoya) caused by the herbicide mesosulfuron-methyl: […]

[3] = safener 100 g/ha + mesosulfuron-methyl 40-60 g/ha
[4] = safener 500 g/ha + mesosulfuron-methyl 40-60 g/ha

| Structure (SMILES) | Efficacy of the safener (efficacy code) [1, 3] | Efficacy of the safener (efficacy code) [1, 4] | Efficacy of the safener (efficacy code) [2, 4] | Efficacy of the safener (efficacy code) [2, 3] |
| --- | --- | --- | --- | --- |
| CCOC(=O)COc1cc(-c2ccc(F)cc2)n(-c2ccc(Cl)cc2Cl)n1 [I.11-32] | 2 | 2 | 2 | – |
| COC(=O)COc1cc(-c2ccc(F)cc2F)n(-c2ccc(Cl)cc2F)n1 [I.40-49] | 3 | 3 | 2-3 | 2 |
| CCOC(=O)COc1cc(-c2ccc(F)cc2F)n(-c2ccc(Cl)cc2F)n1 [I.41-49] | 3 | 4 | 2 | 2 |
| O=C(O)COc1cc(-c2ccc(F)cc2F)n(-c2ccc(Cl)cc2F)n1 [I.42-49] | 3 | 4 | 3 | 2-3 |
| CCOC(=O)COc1cc(-c2ccc(Cl)cc2F)n(-c2ccc(F)cc2Cl)n1 [I.47-48] | 3 | 4 | 3 | 2 |
| CCOC(=O)COc1cc(-c2ccc(Cl)cc2F)n(-c2ccc(Cl)cc2F)n1 [I.47-49] | – | 3 | 3 | 2 |
| CCOC(=O)COc1cc(-c2ccc(F)cc2Cl)n(-c2ccc(Cl)cc2F)n1 [I.50-49] | 2 | 3 | 3 | 2-3 |
